Test results: ChEMBL document CHEMBL5291721, “A preclinical secondary pharmacology resource illuminates target-adverse drug reaction associations of marketed drugs” (Nat Commun, 2023)

Tests used:
[1] = target: Gamma-aminobutyric acid receptor subunit alpha-1 (Rattus norvegicus, UniProt P62813); assay type: functional
[2] = target: 3',5'-cyclic-AMP phosphodiesterase 4D (Homo sapiens, UniProt Q08499); assay type: functional
[3] = target: Bile salt export pump (Homo sapiens, UniProt O95342); assay type: functional
Chain of Bile salt export pump (O95342 whole entry): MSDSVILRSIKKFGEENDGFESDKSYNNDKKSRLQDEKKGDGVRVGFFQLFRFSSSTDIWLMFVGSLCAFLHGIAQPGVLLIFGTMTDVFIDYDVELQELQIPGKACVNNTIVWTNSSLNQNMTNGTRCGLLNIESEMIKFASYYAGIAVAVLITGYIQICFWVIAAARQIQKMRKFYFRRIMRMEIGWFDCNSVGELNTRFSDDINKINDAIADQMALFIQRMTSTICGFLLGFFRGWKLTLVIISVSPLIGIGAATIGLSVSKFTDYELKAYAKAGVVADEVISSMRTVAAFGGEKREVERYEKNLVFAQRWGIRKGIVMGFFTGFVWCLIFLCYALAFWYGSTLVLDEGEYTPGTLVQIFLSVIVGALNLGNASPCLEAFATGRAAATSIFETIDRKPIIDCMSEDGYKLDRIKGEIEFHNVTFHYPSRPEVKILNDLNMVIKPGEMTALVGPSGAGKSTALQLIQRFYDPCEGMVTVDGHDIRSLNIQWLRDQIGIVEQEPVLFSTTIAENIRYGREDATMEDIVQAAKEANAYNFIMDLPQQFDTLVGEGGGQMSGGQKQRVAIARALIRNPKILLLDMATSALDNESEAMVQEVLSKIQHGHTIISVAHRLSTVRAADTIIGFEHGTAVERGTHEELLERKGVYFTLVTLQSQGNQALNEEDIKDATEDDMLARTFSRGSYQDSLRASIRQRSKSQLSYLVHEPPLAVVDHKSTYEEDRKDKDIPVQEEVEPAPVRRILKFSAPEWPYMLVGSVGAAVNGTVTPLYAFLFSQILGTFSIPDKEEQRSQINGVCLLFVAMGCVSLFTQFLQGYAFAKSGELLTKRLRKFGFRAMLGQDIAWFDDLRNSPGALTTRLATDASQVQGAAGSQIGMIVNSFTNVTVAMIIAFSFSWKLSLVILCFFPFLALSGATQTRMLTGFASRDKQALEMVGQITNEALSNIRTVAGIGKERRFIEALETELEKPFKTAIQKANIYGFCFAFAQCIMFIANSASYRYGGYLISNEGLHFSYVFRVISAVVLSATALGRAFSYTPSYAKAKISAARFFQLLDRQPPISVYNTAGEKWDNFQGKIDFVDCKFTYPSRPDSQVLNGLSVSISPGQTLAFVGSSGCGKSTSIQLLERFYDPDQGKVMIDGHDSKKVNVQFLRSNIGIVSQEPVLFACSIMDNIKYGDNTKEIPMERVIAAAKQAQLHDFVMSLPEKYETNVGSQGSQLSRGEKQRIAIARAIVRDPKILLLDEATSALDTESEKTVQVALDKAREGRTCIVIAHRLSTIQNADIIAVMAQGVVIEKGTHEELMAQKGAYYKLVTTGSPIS

[4] = target: T1, Alpha-2A adrenergic receptor (Homo sapiens, UniProt P08913); assay type: functional, cell-based
T1 sequence (P08913 whole entry): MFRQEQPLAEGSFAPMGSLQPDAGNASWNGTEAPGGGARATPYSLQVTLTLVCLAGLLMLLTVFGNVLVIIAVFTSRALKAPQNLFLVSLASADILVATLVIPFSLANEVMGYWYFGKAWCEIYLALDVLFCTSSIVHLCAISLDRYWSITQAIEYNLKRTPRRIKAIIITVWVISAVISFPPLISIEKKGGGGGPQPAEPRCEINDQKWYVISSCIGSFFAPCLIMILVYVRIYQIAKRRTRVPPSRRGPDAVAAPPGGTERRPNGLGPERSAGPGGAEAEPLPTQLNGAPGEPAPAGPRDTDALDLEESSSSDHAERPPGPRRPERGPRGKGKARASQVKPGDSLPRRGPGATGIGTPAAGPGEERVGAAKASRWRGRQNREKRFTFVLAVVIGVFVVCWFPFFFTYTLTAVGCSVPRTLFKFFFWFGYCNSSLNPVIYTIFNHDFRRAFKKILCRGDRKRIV

[5] = target: Voltage-gated inwardly rectifying potassium channel KCNH2 (Homo sapiens, UniProt Q12809); assay type: functional; conditions: read-out: AC50
[6] = target: Sodium-dependent dopamine transporter (Homo sapiens, UniProt Q01959)
Chain of Sodium-dependent dopamine transporter (Q01959 whole entry): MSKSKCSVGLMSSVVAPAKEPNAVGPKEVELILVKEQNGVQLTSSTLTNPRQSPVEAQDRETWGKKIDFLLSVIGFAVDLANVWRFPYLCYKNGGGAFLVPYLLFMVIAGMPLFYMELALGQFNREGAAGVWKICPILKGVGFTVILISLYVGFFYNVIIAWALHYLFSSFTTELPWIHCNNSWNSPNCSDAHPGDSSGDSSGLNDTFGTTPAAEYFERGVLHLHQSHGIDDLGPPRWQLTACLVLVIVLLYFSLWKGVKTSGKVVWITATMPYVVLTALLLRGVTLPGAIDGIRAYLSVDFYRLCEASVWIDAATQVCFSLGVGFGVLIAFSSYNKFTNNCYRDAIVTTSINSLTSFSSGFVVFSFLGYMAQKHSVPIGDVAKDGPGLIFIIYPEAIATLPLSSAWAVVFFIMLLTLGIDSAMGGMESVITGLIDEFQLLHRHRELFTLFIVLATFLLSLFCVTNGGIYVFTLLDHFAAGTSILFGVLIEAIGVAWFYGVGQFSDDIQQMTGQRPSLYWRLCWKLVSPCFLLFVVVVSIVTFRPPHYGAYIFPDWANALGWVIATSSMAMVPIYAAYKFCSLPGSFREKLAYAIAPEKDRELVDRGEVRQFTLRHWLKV

[7] = target: T2, Equilibrative nucleoside transporter 1 (Homo sapiens, UniProt Q99808)
T2 sequence (Q99808 whole entry): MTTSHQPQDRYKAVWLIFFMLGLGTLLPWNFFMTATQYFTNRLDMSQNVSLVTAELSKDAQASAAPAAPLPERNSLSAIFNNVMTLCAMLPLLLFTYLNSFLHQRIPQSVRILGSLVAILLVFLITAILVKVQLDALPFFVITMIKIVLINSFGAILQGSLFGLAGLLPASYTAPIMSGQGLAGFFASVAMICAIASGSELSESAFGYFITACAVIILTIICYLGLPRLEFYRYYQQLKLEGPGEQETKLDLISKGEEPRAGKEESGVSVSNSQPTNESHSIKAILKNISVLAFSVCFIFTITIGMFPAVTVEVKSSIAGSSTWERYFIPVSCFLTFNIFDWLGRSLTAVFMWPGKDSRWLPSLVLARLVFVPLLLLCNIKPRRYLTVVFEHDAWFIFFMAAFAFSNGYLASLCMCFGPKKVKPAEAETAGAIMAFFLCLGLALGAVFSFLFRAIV

[8] = target: Neuronal acetylcholine receptor subunit alpha-4 (Homo sapiens, UniProt P43681)
Chain of Neuronal acetylcholine receptor subunit alpha-4 (P43681 whole entry): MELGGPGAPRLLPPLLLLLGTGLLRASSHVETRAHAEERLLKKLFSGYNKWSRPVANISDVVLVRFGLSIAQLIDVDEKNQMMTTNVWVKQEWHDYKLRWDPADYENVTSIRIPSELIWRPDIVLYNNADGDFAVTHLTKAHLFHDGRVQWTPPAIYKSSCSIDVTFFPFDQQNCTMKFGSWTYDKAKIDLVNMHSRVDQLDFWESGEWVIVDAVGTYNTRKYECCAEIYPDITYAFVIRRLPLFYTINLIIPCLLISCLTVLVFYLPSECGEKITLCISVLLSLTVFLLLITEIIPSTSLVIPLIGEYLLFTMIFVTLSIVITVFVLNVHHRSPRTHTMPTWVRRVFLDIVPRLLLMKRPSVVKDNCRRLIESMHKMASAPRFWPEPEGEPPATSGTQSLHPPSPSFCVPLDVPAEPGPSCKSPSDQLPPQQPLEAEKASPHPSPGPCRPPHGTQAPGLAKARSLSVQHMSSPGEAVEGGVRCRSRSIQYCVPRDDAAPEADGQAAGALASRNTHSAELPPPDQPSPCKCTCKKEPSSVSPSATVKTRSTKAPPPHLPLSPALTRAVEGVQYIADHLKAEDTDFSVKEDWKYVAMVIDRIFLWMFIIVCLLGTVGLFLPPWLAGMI

[9] = target: Adenosine receptor A2a (Homo sapiens, UniProt P29274)
Chain of Adenosine receptor A2a (P29274 whole entry): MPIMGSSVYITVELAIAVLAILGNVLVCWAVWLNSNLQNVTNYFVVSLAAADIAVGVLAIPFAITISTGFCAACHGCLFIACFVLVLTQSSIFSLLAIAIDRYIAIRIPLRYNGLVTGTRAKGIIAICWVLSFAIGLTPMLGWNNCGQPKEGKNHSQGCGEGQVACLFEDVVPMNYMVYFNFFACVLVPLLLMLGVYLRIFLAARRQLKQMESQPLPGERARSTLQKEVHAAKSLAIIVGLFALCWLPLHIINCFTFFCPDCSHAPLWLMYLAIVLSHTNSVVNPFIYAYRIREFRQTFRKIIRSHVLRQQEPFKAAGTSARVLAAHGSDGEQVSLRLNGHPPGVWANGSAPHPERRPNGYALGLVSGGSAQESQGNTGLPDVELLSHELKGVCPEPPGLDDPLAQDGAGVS

[10] = target: 5-hydroxytryptamine receptor 2B (Homo sapiens, UniProt P41595); assay type: functional, cell-based
Chain of 5-hydroxytryptamine receptor 2B (P41595 whole entry): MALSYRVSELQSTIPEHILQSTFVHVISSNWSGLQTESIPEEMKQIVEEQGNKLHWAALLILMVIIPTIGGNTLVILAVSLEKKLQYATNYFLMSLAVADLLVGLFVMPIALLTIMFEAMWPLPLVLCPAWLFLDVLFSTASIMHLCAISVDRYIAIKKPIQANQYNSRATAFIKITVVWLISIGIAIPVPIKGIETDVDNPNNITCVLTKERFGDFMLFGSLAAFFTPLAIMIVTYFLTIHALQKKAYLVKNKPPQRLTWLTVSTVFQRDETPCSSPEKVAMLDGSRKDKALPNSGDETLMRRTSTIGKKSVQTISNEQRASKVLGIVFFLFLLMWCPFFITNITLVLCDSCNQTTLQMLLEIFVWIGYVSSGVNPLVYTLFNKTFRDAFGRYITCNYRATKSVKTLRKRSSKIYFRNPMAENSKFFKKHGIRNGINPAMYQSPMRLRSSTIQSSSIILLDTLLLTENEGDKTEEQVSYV

[11] = target: T3, 5-hydroxytryptamine receptor 3A (Homo sapiens, UniProt P46098); assay type: functional
T3 sequence (P46098 whole entry): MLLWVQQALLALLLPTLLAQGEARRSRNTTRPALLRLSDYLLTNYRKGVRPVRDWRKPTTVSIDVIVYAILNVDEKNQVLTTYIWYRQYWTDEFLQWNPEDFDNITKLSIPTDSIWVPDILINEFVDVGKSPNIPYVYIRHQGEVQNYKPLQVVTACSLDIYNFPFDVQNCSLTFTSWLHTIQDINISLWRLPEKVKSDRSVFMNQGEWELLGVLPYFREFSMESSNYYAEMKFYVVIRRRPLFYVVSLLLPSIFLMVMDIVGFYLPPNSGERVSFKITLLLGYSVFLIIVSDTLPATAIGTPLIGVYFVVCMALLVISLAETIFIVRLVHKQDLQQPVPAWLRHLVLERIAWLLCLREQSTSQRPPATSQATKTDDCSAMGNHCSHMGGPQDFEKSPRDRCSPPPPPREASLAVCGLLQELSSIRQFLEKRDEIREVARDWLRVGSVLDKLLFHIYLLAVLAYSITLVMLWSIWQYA

[12] = target: Delta-type opioid receptor (Homo sapiens, UniProt P41143)
Chain of Delta-type opioid receptor (P41143 whole entry): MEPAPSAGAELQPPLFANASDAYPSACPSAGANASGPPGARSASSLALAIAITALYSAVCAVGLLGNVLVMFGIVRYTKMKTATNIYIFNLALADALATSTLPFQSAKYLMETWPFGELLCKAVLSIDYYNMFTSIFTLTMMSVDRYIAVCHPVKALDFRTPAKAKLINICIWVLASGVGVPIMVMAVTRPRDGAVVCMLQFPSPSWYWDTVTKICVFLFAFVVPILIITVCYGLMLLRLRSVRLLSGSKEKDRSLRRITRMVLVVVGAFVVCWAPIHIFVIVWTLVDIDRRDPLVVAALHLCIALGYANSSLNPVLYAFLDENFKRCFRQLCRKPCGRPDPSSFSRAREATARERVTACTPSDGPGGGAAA

[13] = target: T1, Alpha-2A adrenergic receptor; assay type: functional, cell-based; remark: listed apart in the source
[14] = target: Sodium-dependent noradrenaline transporter (Homo sapiens, UniProt P23975)
[15] = target: Growth hormone secretagogue receptor type 1 (Homo sapiens, UniProt Q92847)
Chain of Growth hormone secretagogue receptor type 1 (Q92847 whole entry): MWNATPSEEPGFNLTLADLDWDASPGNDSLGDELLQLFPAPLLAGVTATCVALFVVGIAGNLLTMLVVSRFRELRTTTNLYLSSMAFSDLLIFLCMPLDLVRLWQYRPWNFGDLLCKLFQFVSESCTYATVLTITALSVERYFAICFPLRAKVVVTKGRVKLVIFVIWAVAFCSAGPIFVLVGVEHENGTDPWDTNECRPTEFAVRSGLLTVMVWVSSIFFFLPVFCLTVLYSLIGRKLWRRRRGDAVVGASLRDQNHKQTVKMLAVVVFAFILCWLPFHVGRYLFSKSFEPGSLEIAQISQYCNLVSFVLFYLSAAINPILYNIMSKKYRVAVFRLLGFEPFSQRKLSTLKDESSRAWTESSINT

[16] = target: T4, Prostaglandin G/H synthase 1 (Rattus norvegicus, UniProt Q63921); assay type: functional
T4 sequence (Q63921 whole entry): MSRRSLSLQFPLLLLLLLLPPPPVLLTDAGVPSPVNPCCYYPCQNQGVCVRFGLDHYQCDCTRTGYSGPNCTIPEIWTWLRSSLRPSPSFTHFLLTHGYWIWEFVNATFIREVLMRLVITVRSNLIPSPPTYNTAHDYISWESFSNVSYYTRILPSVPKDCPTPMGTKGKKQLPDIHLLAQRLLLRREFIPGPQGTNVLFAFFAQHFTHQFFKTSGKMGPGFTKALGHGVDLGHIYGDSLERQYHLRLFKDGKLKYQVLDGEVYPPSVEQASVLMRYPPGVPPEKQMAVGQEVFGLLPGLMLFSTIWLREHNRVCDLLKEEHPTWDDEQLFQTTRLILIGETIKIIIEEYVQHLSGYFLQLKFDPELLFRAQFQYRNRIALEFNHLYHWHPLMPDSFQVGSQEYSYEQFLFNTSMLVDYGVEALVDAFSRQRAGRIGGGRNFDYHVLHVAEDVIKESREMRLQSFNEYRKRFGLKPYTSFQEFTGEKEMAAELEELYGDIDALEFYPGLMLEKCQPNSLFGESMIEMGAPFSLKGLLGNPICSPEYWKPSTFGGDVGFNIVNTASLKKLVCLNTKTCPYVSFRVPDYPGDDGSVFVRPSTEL

[17] = target: D(1A) dopamine receptor (Homo sapiens, UniProt P21728); assay type: functional, cell-based
Chain of D(1A) dopamine receptor (P21728 whole entry): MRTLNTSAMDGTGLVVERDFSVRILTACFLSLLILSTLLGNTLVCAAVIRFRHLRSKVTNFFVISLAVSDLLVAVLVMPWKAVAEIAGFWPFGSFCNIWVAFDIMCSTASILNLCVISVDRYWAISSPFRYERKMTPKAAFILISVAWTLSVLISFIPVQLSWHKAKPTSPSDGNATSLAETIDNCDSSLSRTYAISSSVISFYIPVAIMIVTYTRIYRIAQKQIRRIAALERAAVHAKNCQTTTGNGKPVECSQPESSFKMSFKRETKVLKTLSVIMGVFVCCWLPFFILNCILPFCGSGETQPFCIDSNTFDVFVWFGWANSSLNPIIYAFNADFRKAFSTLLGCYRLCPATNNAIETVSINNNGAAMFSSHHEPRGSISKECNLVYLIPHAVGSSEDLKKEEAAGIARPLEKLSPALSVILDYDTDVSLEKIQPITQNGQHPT

[18] = target: Melanocortin receptor 3 (Homo sapiens, UniProt P41968)
Chain of Melanocortin receptor 3 (P41968 whole entry): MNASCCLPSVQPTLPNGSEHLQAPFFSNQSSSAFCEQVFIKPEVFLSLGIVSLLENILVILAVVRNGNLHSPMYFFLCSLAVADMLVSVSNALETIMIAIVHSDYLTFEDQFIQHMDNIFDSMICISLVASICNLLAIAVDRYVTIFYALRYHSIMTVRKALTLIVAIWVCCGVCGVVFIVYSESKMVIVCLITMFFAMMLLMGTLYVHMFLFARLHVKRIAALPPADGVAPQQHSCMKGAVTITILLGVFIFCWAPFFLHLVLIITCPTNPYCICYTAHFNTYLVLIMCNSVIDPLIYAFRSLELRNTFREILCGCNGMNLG
Further: assay procedure not described here.

SMILES | AC50 [1] | AC50 [2] | AC50 [3] | AC50 [4] | AC50 [5] | AC50 [6] | AC50 [7] | AC50 [8] | AC50 [9] | AC50 [10] | AC50 [11] | AC50 [12] | AC50 [13] | AC50 [14] | AC50 [15] | AC50 [16] | AC50 [17] | AC50 [18]
CC(=O)c1ccc2c(c1)N(CCCN1CCN(CCO)CC1)c1ccccc1S2 [ACETOPHENAZINE] | > 30 µM | > 30 µM | > 300 µM | 1.2 µM | 2.3 µM | 25 µM | > 30 µM | > 30 µM | > 30 µM | 4.49 µM | > 30 µM | > 30 µM | > 30 µM | 17 µM | > 30 µM | > 30 µM | > 30 µM | > 30 µM
Oc1ncnc2[nH]ncc12 [ALLOPURINOL] | > 10 µM | > 30 µM | > 300 µM | > 10 µM | > 30 µM | > 10 µM | > 30 µM | > 10 µM | > 30 µM | > 10 µM | > 30 µM | > 30 µM | > 10 µM | > 10 µM | > 30 µM | > 30 µM | > 10 µM | > 30 µM
COC(=O)N[C@H](C(=O)N[C@@H](Cc1ccccc1)[C@@H](O)CN(Cc1ccc(-c2ccccn2)cc1)NC(=O)[C@@H](NC(=O)OC)C(C)(C)C)C(C)(C)C [ATAZANAVIR] | > 10 µM | > 30 µM | 2 µM | > 10 µM | > 30 µM | > 30 µM | > 30 µM | > 30 µM | > 30 µM | > 10 µM | > 30 µM | > 30 µM | > 10 µM | > 30 µM | 10.6 µM | > 10 µM | > 10 µM | > 30 µM
CC(C)NCC(O)COc1ccc(COCCOC(C)C)cc1 (stereo not given) [BISOPROLOL] | > 10 µM | > 30 µM | > 300 µM | > 10 µM | > 30 µM | > 10 µM | > 30 µM | > 10 µM | > 30 µM | > 10 µM | > 10 µM | > 10 µM | > 10 µM | > 10 µM | > 30 µM | > 30 µM | > 10 µM | > 30 µM
N[C@@H](C(=O)N[C@@H]1C(=O)N2C(C(=O)O)=C(Cl)CS[C@H]12)c1ccccc1 [CEFACLOR ANHYDROUS] | > 30 µM | > 30 µM | > 300 µM | > 30 µM | > 30 µM | > 30 µM | > 30 µM | > 30 µM | > 30 µM | > 30 µM | > 30 µM | > 30 µM | > 30 µM | > 30 µM | > 30 µM | > 30 µM | > 30 µM | > 30 µM
O=C(O)c1cc(-c2ccc(F)cc2F)ccc1O [DIFLUNISAL] | > 10 µM | > 30 µM | 160 µM | > 10 µM | > 30 µM | > 10 µM | > 10 µM | > 10 µM | > 10 µM | > 10 µM | > 30 µM | > 30 µM | > 10 µM | > 10 µM | > 10 µM | > 10 µM | > 30 µM | > 10 µM
COC(=O)[C@@H]1CC2=CC(=O)CC[C@]2(C)[C@@]23O[C@@H]2C[C@@]2(C)[C@@H](CC[C@@]24CCC(=O)O4)[C@H]13 [EPLERENONE] | > 10 µM | > 30 µM | > 300 µM | > 30 µM | > 30 µM | > 30 µM | > 30 µM | > 30 µM | > 30 µM | > 30 µM | > 30 µM | > 30 µM | > 30 µM | > 30 µM | > 30 µM | > 30 µM | > 30 µM | > 30 µM
C[C@@H]1O[C@@H]1P(=O)(O)O [FOSFOMYCIN] | > 10 µM | > 30 µM | > 300 µM | > 10 µM | > 30 µM | > 10 µM | > 10 µM | > 10 µM | > 10 µM | > 10 µM | > 30 µM | > 30 µM | > 10 µM | > 10 µM | > 10 µM | > 10 µM | > 10 µM | > 10 µM
COc1ccc2c(c1)C(=O)N(CCc1ccc(S(=O)(=O)NC(=O)NC3CCCCC3)cc1)C(=O)C2(C)C [GLIQUIDONE] | > 30 µM | 1.4 µM | 1.7 µM | > 30 µM | > 30 µM | > 30 µM | > 30 µM | > 30 µM | > 30 µM | > 30 µM | > 30 µM | > 30 µM | > 30 µM | > 30 µM | > 30 µM | > 30 µM | > 30 µM | > 30 µM
NS(=O)(=O)c1cc2c(cc1Cl)NCNS2(=O)=O [HYDROCHLOROTHIAZIDE] | > 10 µM | > 10 µM | > 300 µM | > 10 µM | > 30 µM | > 10 µM | > 30 µM | > 10 µM | > 30 µM | > 10 µM | > 10 µM | > 10 µM | > 10 µM | > 10 µM | > 30 µM | > 30 µM | > 10 µM | > 30 µM
